Measured values: US5292884A, “Cyclic hydroxamic acids” (Biomide Investment Limited Partnership, priority 1992, dated 1994)

Target: T1, 12-lipoxygenase (Sus scrofa, UniProt P16469)
T1 construct: porcine Leukocyte cytosol in buffer; from tissue; host or cells: porcine leukocyte cytosol
T1 sequence (P16469 1-663): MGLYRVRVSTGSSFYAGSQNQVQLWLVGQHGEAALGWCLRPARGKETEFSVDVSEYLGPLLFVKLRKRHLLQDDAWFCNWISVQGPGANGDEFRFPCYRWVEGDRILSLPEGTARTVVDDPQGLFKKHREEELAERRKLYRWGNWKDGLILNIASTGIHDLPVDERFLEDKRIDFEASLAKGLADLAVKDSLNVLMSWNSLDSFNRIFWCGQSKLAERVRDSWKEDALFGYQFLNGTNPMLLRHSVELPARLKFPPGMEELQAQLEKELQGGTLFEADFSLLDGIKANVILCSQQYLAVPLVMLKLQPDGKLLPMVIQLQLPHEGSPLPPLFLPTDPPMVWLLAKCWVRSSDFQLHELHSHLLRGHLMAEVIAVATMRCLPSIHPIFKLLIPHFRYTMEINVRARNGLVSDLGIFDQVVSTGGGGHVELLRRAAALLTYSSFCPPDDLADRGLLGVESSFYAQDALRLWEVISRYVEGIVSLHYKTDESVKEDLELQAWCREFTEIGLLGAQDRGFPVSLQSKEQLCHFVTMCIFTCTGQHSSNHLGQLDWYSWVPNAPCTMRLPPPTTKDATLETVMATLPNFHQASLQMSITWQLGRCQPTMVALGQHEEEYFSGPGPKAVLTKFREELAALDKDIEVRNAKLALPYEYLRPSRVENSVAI
Assay: 12-lipoxygenase inhibition in porcine leukocyte cytosol ([1-14C] arachidonic acid conversion to 12-HETE, TLC)
Type: biochemical
Details: porcine leukocyte cytosol 0.075 mg/mL, pH 8.0, 5 min preincubation, 5 μM arachidonic acid, 15 min at 37° C.
Experimental: The standard assay procedure is as follows:
Compounds of the present invention were added in 3 μL of DMSO at an appropriate concentration to porcine Leukocyte cytosol in buffer (final protein concentration of 0.075 mg/mL in 0.1M HEPES, 2 mM caCl2, 1 mM MgCl2, pH=8.0) and preincubated for 5 min at 37° C. [1-^14 C] arachidonic acid was added (final concentration of 5 μM) and the reactions were incubated for 15 min at 37° C. and terminated by the addition of HCl. Total reaction volume was 100 μL. Assays also included reduced glutathione in the assay at 25 μM or following the assay at 1 mM and/or cold carrier 12-HETE and arachidonic acid added at the end of the incubation at concentrations of 5 and 100 μM, respectively. Sample was extracted with water-saturated ethyl acetate and the extracts were spotted onto TLC plates. The plates were developed with dichloromethane/ethyl acetate/acetic acid in a ratio of 70:30:1. Under these conditions, the Rf's of 12-HETE and arachidonic acid are 0.30 and 0.45 , respectively. The percentage conversion to 12-HETE was calculated from the percentage of the total ^14 C on the TLC plate that coelutes with a standard of 12-HETE.

Structure (SMILES)	IC50 [nM]
CCCCCCCCCC[C@@H]1[C@H](c2ccccc2)CCC(=O)N1O (relative stereo) [1(x), cis-6-Decyl-1-hydroxy-5-phenyl-piperidin-2-one]	200
CCCCCCCCCC[C@@H]1[C@@H](c2ccccc2)CCC(=O)N1O (relative stereo) [1(y), trans-6-Decyl-hydroxy-5-phenyl-piperidin-2-one]	300
CCCCCCCCCCCC[C@H]1[C@H](c2ccccc2)CCC(=O)N1O (relative stereo) [1(z), trans-6-Dodecyl-1-hydroxy-5-phenyl-piperidin-2-one]	800
CCCCCCCC[C@@H]1C[C@H](c2ccccc2)CC(=O)N1O (relative stereo) [Compound 1, cis-1-hydroxy-6-octyl-4-phenylpiperidin-2-one]	420
CCCCCCCCCCCCC1CCC(c2ccccc2)N(O)C1=O (single isomer, unassigned) [1(ii), 3-Dodecyl-1-hydroxy-6-phenyl-piperidin-2-one]	2000
O=C1C(Cc2cccc3ccccc23)C(c2ccccc2)CCN1O (centres unmarked) [1(ee), 1-Hydroxy-3-(1-naphthyl-methyl)-4-phenyl-piperidin-2-one]	1000
O=C1CCC(CCCc2ccccc2)C(CCCc2ccccc2)N1O (centres unmarked) [1(fff), 1-Hydroxy-5,6-bis(3-phenyl-propyl)-piperidin-2-one]	250

Further lines, results first:

IC50 [nM]	Structure (SMILES)
900	O=C1CC[C@@H](c2ccccc2)[C@@H](CCCc2ccccc2)N1O (relative stereo) [1(ww), cis-1-Hydroxy-5-phenyl-6-(3-phenylpropyl)-piperidin-2-one]
1000	O=C1CC[C@@H](c2ccccc2)[C@H](CCCc2ccccc2)N1O (relative stereo) [1(xx), trans-1-Hydroxy-5-phenyl-6-(3-phenylpropyl)-piperidin-2-one]
1700	O=C1CC(CCCc2ccccc2)C(c2ccccc2)CN1O (single isomer, unassigned) [1(uu), 1-Hydroxy-5-phenyl-4-(3-phenylpropyl)-piperidin-2-one]
750	O=C1C(CCCc2ccccc2)CC(c2ccccc2)CN1O (centres unmarked) [1(aaa), 1-Hydroxy-5-phenyl-3-(3-phenylpropyl)-piperidin-2-one]
1050	O=C1C(CCCc2ccccc2)C(c2ccccc2)CCN1O (centres unmarked) [1(hh), 1-Hydroxy-4-phenyl-3-(3-phenylpropyl)-piperidin-2-one]
1000	O=C1CC(CCc2ccccc2)C(c2ccccc2)CN1O (centres unmarked) [1(qq), 1-Hydroxy-5-phenyl-4-(2-phenylethyl)-piperidin-2-one]
1600	O=C1CC(CCc2ccccc2)C(Cc2ccccc2)CN1O (centres unmarked) [1(rr), 5-Benzyl-1-hydroxy-4-(2-phenylethyl)-piperidin-2-one]
1000	O=C1C(c2ccccc2)C(CCCc2ccccc2)CCN1O (centres unmarked) [1(vv), 1-Hydroxy-3-phenyl-4-(3-phenylpropyl)-piperidin-2-one]
520	O=C1C(c2ccccc2)CC(CCCc2ccccc2)CN1O (centres unmarked) [1(yy), 1-Hydroxy-3-phenyl-5-(3-phenylpropyl)-piperidin-2-one]
1600	O=C1CC(c2ccccc2)C(CCCc2ccccc2)CN1O (centres unmarked) [1(zz), 1-Hydroxy-4-phenyl-5-(3-phenylpropyl)-piperidin-2-one]
